In patent US10738024B2, “Compounds for treatment of angiogenesis-mediated diseases” (Indiana University Research and Technology Corporation, priority 2013, dated 2020):
“Also recorded” adds a separate entry of the source.

How the values were obtained:
Type in all cases: cell-based, human
HUVECs = experiment: EdU incorporation (DNA synthesis) in HUVECs; conditions: 24 hours treatment, 10 μM EdU pulse; listed as SH-11052 (2)
Procedure: In order to confirm the inhibition of cell proliferation, incorporation of 5-ethynyl-2′-deoxyuridine (EdU) into endothelial cells in the presence of SH-11052 (2) was further monitored. Particularly, cells (25,000 per coverslip) were seeded onto coverslips coated with Attachment Factor (Cell Systems, Kirkland, Wash., USA) placed in a 6-well plate and incubated with the indicated concentrations of SH-11052 (2) in EGM-2 for 24 hours at 37° C. and 5% CO2. The cells were then serum starved for 8 hours and the medium was replaced with EGM-2 containing 10 μM EdU. The plate was further incubated for another 8 hours before processing the cells for detection of labeled DNA (according to the manufacturer's instructions for the Click-iT EdU assay kit). Images were taken using an EVOS fluorescence microscope (AMG, Mill Creek, Wash., USA) and the number of DAPI stained and EdU stained cells were counted in six randomly chosen fields using ImageJ software.

HRECs [1] = experiment: Matrigel tube formation by HRECs; conditions: for tube formation ability of HRECs: compared to DMSO control, concentration not given
Procedure: Matrigel assays were performed as described in Ponce (2001) In vitro matrigel angiogenesis assays, Methods Mol Med 46: 205-209, with slight modifications for the use of HRECs. Briefly, HRECs were starved overnight at 0.5% FBS in EBM-2 and plated on a 96-well plate at a density of 7,500 cells/well over 50 μL of Matrigel high concentration basement membrane. SH-11052 (2) was added at the indicated concentrations in EBM-2+1% FBS. Cells were observed every 2 hours by bright field microscopy at 40× magnification for tube formation. Closed units (polygons) were manually counted at 8 hours post plating and numbers normalized to the DMSO control. Assays were performed in triplicate.
For determining the effect of analog compound SH-11037 (6c) on tube formation, HRECs were plated in 100 μL of EGM-2 containing SH-11037 (6c) (0 nM, 50 nM and 200 nM) dissolved in DMSO in 96-well MatriGel-coated plates for one hour. Wells were photographed after 8 hours and number of polygons (enclosed shapes bordered by tubes) manually counted and expressed as a percentage of the DMSO-only control.

p38 MAPK = experiment: Phosphorylation of p38 MAPK in HRECs after TNF-α (immunoblot)
Procedure: HRECs were seeded at 10^5 cells/well in a 6-well plate and after 24 hours of incubation at 37° C., cells were serum starved in 0.1% serum-EBM-2 for 8 hours. Cells were then treated with the indicated concentrations of SH-11052 (2) for one hour before the addition of 20 ng/ml of TNF-α. After 20 minutes, cells were lysed in NP-40 Lysis buffer containing 25 mM HEPES pH 7.4, 1% NP-40, 150 mM NaCl, 10% glycerol, 1 mM sodium orthovanadate, 10 mM sodium fluoride, 1 mM sodium pyrophosphate, 1 mM PMSF, 2.5 mg/ml aprotinin, 1 mM pepstatin, and 1 mM leupeptin. Equal amounts of proteins (80 μg), as measured by a Bradford assay, were run on 10% SDS-PAGE, transferred to PVDF membrane, blocked with 5% BSA in TBS-0.05% Tween-20 and immunoblotted with the indicated primary antibodies (1:1000 in 1% BSA in TBS-0.05% Tween-20) overnight at 4° C. After three washes in TBS-0.05% Tween-20, HRP-conjugated secondary antibodies (1:5000 in 5% BSA in TBS-0.05% Tween-20) were applied for one hour at room temperature. After three washes, the protein bands were detected and densitized using ECL Prime western blot detection reagent (GE Life Sciences, Piscataway, N.J., USA) and an XRS gel documentation system running Quantity One software (Bio-Rad). Target protein band intensity was normalized to housekeeping gene α-tubulin. […]

VCAM-1 = VCAM-1 protein expression in HRECs exposed to TNF-α (immunofluorescence); conditions: 10 ng/ml TNF-α for 24 hours
Procedure: Cells (25,000 per coverslip) were seeded onto coverslips coated with Attachment Factor (Cell Systems, Kirkland, Wash., USA) and incubated at 37° C. and 5% CO2 for 24 hours in EGM-2. The cells were starved in 0.1% serum-EBM-2 for 8 hours followed by incubation in 0.1% serum-EBM-2 medium for an hour in the presence of different concentrations of SH-11052 (2). The cells were challenged with 10 ng/ml of TNF-α for 24 hours and fixed with 4% paraformaldehyde solution for 20 minutes at room temperature. The coverslips were quickly washed three times in TBS and blocked using 10% block solution (DAKO) prepared in 1×TBS-1% BSA buffer. The coverslips were incubated with the antibody against VCAM-1 (1:100 dilution), a cell adhesion molecule specifically expressed on endothelial cells, whose expression is induced by NF-κB upon TNF-α signaling, for 16 hours at 4° C. followed by three washes in TBS-0.1% BSA buffer. Dylight 555-conjugated secondary antibody (1:200) was used to probe for the VCAM-1 antibody. After three washes in TBS-0.1% BSA, the coverslips were mounted using Vectashield mounting medium containing DAPI nuclear stain. The cells were imaged using an LSM 700 confocal microscope. The image was analyzed for fluorescence signal intensity using MetaMorph software (Molecular Devices, Sunnyvale, Calif., USA).

HRECs [2] = experiment: Migration of HRECs

Row | SMILES | DNA synthesis (EdU incorporation) in HUVECs (HUVECs) | tube formation ability of HRECs at 140 μM (HRECs [1]; 140 μM, 8 hours) | tube formation ability of HRECs (HRECs [1]; listed as SH-11052 (2)) | tube formation of HRECs at the GI50 value (HRECs [1]; compound at its GI50 value, 8 hours) | phosphorylation of p38 MAPK (p38 MAPK) | VCAM-1 protein expression (VCAM-1) | block of HREC tube formation (HRECs [1]; 500 nM, polygons vs DMSO-only control) [%] | tube formation ability of HRECs (HRECs [1]) | migration of HRECs (HRECs [2])
1 | COc1ccc(CC2COc3cc(OC)c(O)c(O)c3C2=O)cc1O (single isomer, unassigned) [Compound 2] | blocked EdU incorporation; also recorded: significantly inhibited in a dose dependent manner | completely abolished | inhibited tube formation; also recorded: significant reduction in their tube formation ability | significant reduction in tube formation | inhibited phosphorylation | significant dose-dependent decrease | – | – | –
2 | COc1ccc(CC2COc3cc(OC)c(OC)c(OC)c3C2=O)cc1OC(=O)[C@H](Cc1ccccc1)NC(=O)OC(C)(C)C (stereo partly drawn) [Compound 6c, (2S)-2-methoxy-5-((5,6,7-trimethoxy-4-oxochroman-3-yl)methyl)phenyl 2-((tert-butoxycarbonyl)amino)-3-phenylpropanoate] | – | – | – | – | – | – | 88 | inhibited | blocked migration
